Among the test systems are DU-145 prostate; IGROV1 ovarian; HCC-2998 colon; SK-MEL-28 melanoma; SNB-75 CNS; PC-3 prostate; LOX IMVI melanoma; SF-295 CNS; RPMI-8226 leukemia; A498 renal.
What all share (test): DTP human tumour cell line panel, 48 h

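Briefly, cells in 96-well plates were exposed to five compound concentrations for 48 h, and endpoints were estimated by linear interpolation. Abbreviation: GI50, concentration required for 50% inhibition of growth. TGI is the concentration that stops growth completely.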

Regarding `O=C(Nc1ccccc1)NS(=O)(=O)c1ccc(N2N=C3c4ccccc4CC3C2c2ccccn2)cc1` (configuration not stated), the GI50 in the experiment with DU-145 prostate is 36.2 µM; in the experiment on IGROV1 ovarian it was 16.2 µM; in the experiment on HCC-2998 colon, 17.3 µM; with SK-MEL-28 melanoma it was 71.5 µM; in the experiment with SNB-75 CNS, greater than 100 µM; in the experiment with PC-3 prostate it was 36.6 µM. Further, the GI50 in the experiment on LOX IMVI melanoma was 15.4 µM; in the experiment on SF-295 CNS, 20.6 µM; in the experiment on RPMI-8226 leukemia it was 27.1 µM. Further, the TGI with DU-145 prostate is greater than 100 µM; in the experiment with IGROV1 ovarian it was 80.5 µM; in the experiment with HCC-2998 colon, 33.3 µM; with SK-MEL-28 melanoma it was greater than 100 µM; with SNB-75 CNS, greater than 100 µM; in the experiment on PC-3 prostate, greater than 100 µM. For the same molecule, the TGI was 34.2 µM in the experiment on LOX IMVI melanoma, 50 µM with SF-295 CNS and greater than 100 µM in the experiment on RPMI-8226 leukemia.
As for `Cc1ccccc1-c1c(N)nc(N)nc1C(=O)Nc1nccs1`, the concentration for total growth inhibition (TGI) in the experiment on IGROV1 ovarian, in the experiment on HCC-2998 colon, with SK-MEL-28 melanoma, in the experiment with SNB-75 CNS, in the experiment with A498 renal and with LOX IMVI melanoma was greater than 100 µM throughout. In addition, the TGI in the experiment with SF-295 CNS and in the experiment with RPMI-8226 leukemia was greater than 100 µM in each case.
With `CCC[CH2][Ge]([CH2]CCC)([CH2]CCC)[O]C(=O)C(O)c1ccccc1` (configuration not stated), the GI50 with IGROV1 ovarian was 9.44 µM; with HCC-2998 colon, 2.69 µM; with SK-MEL-28 melanoma it was 12.7 µM; in the experiment with SNB-75 CNS it was 4.51 µM; in the experiment with A498 renal, 11.7 µM; in the experiment with LOX IMVI melanoma, 1.85 µM. The GI50 with SF-295 CNS was 1.01 µM; with RPMI-8226 leukemia, 0.641 µM. Moreover, the total growth inhibition concentration (TGI) with IGROV1 ovarian was 30.6 µM; in the experiment with HCC-2998 colon, 14.4 µM; with SK-MEL-28 melanoma, 29.8 µM; with SNB-75 CNS, greater than 100 µM; with A498 renal, 26.8 µM; in the experiment with LOX IMVI melanoma, 13.6 µM. For the same molecule, the TGI is 17.6 µM in the experiment on SF-295 CNS and 42.2 µM in the experiment on RPMI-8226 leukemia.
Turning to `Cc1ccc(S(=O)(=O)SCc2ccccc2CSS(=O)(=O)c2ccc(C)cc2)cc1`, the concentration for total growth inhibition (TGI) in the experiment on IGROV1 ovarian was greater than 100 µM; with HCC-2998 colon it was greater than 100 µM; in the experiment on SK-MEL-28 melanoma it was 36.6 µM; with SNB-75 CNS, greater than 100 µM; in the experiment on A498 renal it was greater than 100 µM; with LOX IMVI melanoma, 29.4 µM. The TGI with SF-295 CNS is greater than 100 µM; with RPMI-8226 leukemia it was 43.1 µM.
Consider `CC(=O)Nc1ccccc1-c1cnc2ccccc2n1`, for which the concentration for total growth inhibition (TGI) in the experiment on IGROV1 ovarian, with HCC-2998 colon, in the experiment on SK-MEL-28 melanoma, in the experiment on SNB-75 CNS, in the experiment on A498 renal and with LOX IMVI melanoma was greater than 100 µM each time. In addition, the TGI with SF-295 CNS and in the experiment on RPMI-8226 leukemia was greater than 100 µM in each case.
As for `Cc1ccccc1NC(=O)C1C(=O)N(c2ccccc2C)C(=O)/C1=N\N` (configuration not stated), the TGI with IGROV1 ovarian, in the experiment on HCC-2998 colon, in the experiment on SK-MEL-28 melanoma, in the experiment with SNB-75 CNS, in the experiment with A498 renal and in the experiment on LOX IMVI melanoma was greater than 100 µM each time. In addition, the concentration for total growth inhibition (TGI) with SF-295 CNS and with RPMI-8226 leukemia was greater than 100 µM throughout.
Turning to `CC(=O)OC1C/C(C)=C/CCC(C)/C=C/C2(C)CCC(C(C)(C)O)C12` (configuration not stated), the concentration for total growth inhibition (TGI) in the experiment with IGROV1 ovarian, in the experiment on HCC-2998 colon, with SK-MEL-28 melanoma, in the experiment with SNB-75 CNS, in the experiment on A498 renal and in the experiment on LOX IMVI melanoma was greater than 100 µM in each case. Moreover, the TGI in the experiment on SF-295 CNS was greater than 100 µM; with RPMI-8226 leukemia, 71.7 µM.
As for `Cc1ccc2c(Nc3cccc(Cl)c3F)ncc(NC(=O)c3csc4c(N)ncnc34)c2c1`, the GI50 with DU-145 prostate was greater than 100 µM; in the experiment on IGROV1 ovarian it was 0.605 µM; with HCC-2998 colon, 0.281 µM; in the experiment on SNB-75 CNS, greater than 100 µM; with PC-3 prostate it was greater than 100 µM; in the experiment with LOX IMVI melanoma, 0.0743 µM. For the same molecule, the GI50 in the experiment on SF-295 CNS is greater than 100 µM; with RPMI-8226 leukemia, 2.81 µM. Besides, the TGI with DU-145 prostate, with IGROV1 ovarian, in the experiment with HCC-2998 colon, with SNB-75 CNS, in the experiment on PC-3 prostate and in the experiment with LOX IMVI melanoma was greater than 100 µM in each case. In addition, the concentration for total growth inhibition (TGI) in the experiment with SF-295 CNS and with RPMI-8226 leukemia was greater than 100 µM each time.
`COc1cc2ccnc3c2c(c1OC)-c1ccc(=O)ccc1-3`: the GI50 is 28.8 µM in the experiment on DU-145 prostate; 47 µM with IGROV1 ovarian; 32.1 µM in the experiment with HCC-2998 colon; 23.7 µM with SK-MEL-28 melanoma; 25.9 µM in the experiment with SNB-75 CNS; 29.7 µM in the experiment on PC-3 prostate. Moreover, the GI50 was 21 µM in the experiment on LOX IMVI melanoma, 23.2 µM in the experiment with SF-295 CNS and 18.4 µM in the experiment with RPMI-8226 leukemia. Besides, the concentration for total growth inhibition (TGI) in the experiment with DU-145 prostate was greater than 100 µM; in the experiment with IGROV1 ovarian, greater than 100 µM; with HCC-2998 colon, greater than 100 µM; with SK-MEL-28 melanoma, 66.9 µM; with SNB-75 CNS, 80.1 µM; in the experiment with PC-3 prostate, greater than 100 µM. Also, the TGI is 46.5 µM with LOX IMVI melanoma, 67.8 µM in the experiment with SF-295 CNS and 51.9 µM in the experiment with RPMI-8226 leukemia.
As for `Cc1ccc(C2(O)CC(c3ccc([N+](=O)[O-])o3)=NN2C(=O)COc2ccccc2Cl)cc1` (configuration not stated), the concentration for total growth inhibition (TGI) in the experiment on IGROV1 ovarian is greater than 100 µM; in the experiment with HCC-2998 colon, 38.3 µM; in the experiment on SK-MEL-28 melanoma it was 45 µM; in the experiment with SNB-75 CNS, greater than 75.4 µM; in the experiment with A498 renal, greater than 100 µM; in the experiment on LOX IMVI melanoma, 18.9 µM. In addition, the figures for the concentration for total growth inhibition (TGI) with SF-295 CNS and in the experiment with RPMI-8226 leukemia were greater than 100 µM and greater than 31.9 µM, respectively.
In the case of `CC[C@H](C)[C@H](NC(=O)Nc1ccccc1)C(=O)N(C)[C@H](C[C@@H](OC(C)=O)c1nc(C(=O)N[C@@H](Cc2ccccc2)C[C@H](C)C(=O)OC)cs1)C(C)C`, the GI50 in the experiment with DU-145 prostate was 3.94 µM; with IGROV1 ovarian it was 3.28 µM; in the experiment on HCC-2998 colon it was 3.48 µM; with SK-MEL-28 melanoma it was greater than 100 µM; in the experiment with PC-3 prostate, 3.47 µM; with LOX IMVI melanoma, 4.76 µM. The GI50 with SF-295 CNS is 2.76 µM; in the experiment on RPMI-8226 leukemia, 2.03 µM. The total growth inhibition concentration (TGI) in the experiment on DU-145 prostate, in the experiment with IGROV1 ovarian, with HCC-2998 colon, in the experiment with SK-MEL-28 melanoma, in the experiment on PC-3 prostate and in the experiment with LOX IMVI melanoma was greater than 100 µM in each case. Further, the TGI in the experiment on SF-295 CNS and with RPMI-8226 leukemia was greater than 100 µM each time.

For orientation: GI50 means the concentration that inhibits growth by half. For orientation: TGI means the concentration giving total growth inhibition.

Source of the values: PubChem BioAssay (NCI).
